Activity calls are given as the source filed them. The calls are words filed in the database; no cut-off is given here.
Key:
[1] = system: OCI-Ly3; assay: Antiproliferative activity against human OCI-LY3 cells assessed as growth inhibition treated every 48 hrs measured after 96 hrs by CellTiter-Glo assay; type: functional
[2] = target: T1, Calpain1/2 (Homo sapiens) (UniProt P17655+P07384); assay: Inhibition of calpain (unknown origin) at 10 uM relative to control; type: protein assay
[3] = target: Cathepsin B (Homo sapiens) (UniProt P07858); assay: Inhibition of cathepsin B (unknown origin) at 10 uM relative to control
[4] = target: T2, Cathepsin K (Homo sapiens) (UniProt P43235); assay: Inhibition of cathepsin K (unknown origin) at 10 uM relative to control
T2 sequence (whole entry): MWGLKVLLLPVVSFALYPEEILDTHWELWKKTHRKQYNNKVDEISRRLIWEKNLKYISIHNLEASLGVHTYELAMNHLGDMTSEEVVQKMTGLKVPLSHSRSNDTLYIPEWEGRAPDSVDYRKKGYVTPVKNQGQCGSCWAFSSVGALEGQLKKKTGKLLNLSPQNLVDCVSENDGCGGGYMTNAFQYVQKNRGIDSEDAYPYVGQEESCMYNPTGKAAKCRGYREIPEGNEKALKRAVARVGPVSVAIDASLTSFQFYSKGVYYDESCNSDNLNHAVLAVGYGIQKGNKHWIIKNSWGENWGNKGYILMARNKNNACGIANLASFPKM

[5] = target: Procathepsin L (Homo sapiens) (UniProt P07711); assay: Inhibition of cathepsin L (unknown origin) at 10 uM relative to control
[6] = target: Cathepsin S (Homo sapiens) (UniProt P25774); assay: Inhibition of cathepsin S (unknown origin) at 10 uM relative to control
[7] = target: T3, Cathepsin L2 (Homo sapiens) (UniProt O60911); assay: Inhibition of cathepsin V (unknown origin) at 10 uM relative to control
T3 sequence (whole entry): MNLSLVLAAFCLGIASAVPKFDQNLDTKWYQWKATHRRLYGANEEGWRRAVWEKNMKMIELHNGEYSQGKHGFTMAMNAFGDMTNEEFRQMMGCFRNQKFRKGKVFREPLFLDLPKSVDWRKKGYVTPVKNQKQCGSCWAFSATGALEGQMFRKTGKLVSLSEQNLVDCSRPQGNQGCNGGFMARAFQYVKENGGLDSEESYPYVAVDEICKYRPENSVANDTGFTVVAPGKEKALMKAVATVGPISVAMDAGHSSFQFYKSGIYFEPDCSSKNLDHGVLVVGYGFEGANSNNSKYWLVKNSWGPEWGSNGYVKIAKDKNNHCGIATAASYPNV

[8] = target: Prothrombin (Homo sapiens) (UniProt P00734); assay: Inhibition of thrombin (unknown origin) at 10 uM relative to control
[9] = target: T4, Trypsin (Homo sapiens) (UniProt P07477+P07478+P35030); assay: Inhibition of trypsin (unknown origin) at 10 uM relative to control; type: protein assay
[10] = target: Tryptase beta-2 (Homo sapiens) (UniProt P20231); assay: Inhibition of tryptase b2 (unknown origin) at 10 uM relative to control
[11] = target: T1, Calpain1/2 (Homo sapiens); assay: Inhibition of calpain (unknown origin) at 1 uM relative to control; type: protein assay
[12] = target: Cathepsin B (Homo sapiens) (UniProt P07858); assay: Inhibition of cathepsin B (unknown origin) at 1 uM relative to control
[13] = target: T2, Cathepsin K (Homo sapiens); assay: Inhibition of cathepsin K (unknown origin) at 1 uM relative to control
[14] = target: Cathepsin S (Homo sapiens) (UniProt P25774); assay: Inhibition of cathepsin S (unknown origin) at 1 uM relative to control
[15] = target: T3, Cathepsin L2 (Homo sapiens); assay: Inhibition of cathepsin V (unknown origin) at 1 uM relative to control
[16] = target: Prothrombin (Homo sapiens) (UniProt P00734); assay: Inhibition of thrombin (unknown origin) at 1 uM relative to control
[17] = target: T4, Trypsin (Homo sapiens); assay: Inhibition of trypsin (unknown origin) at 1 uM relative to control; type: protein assay
[18] = target: Tryptase beta-2 (Homo sapiens) (UniProt P20231); assay: Inhibition of tryptase b2 (unknown origin) at 1 uM relative to control
[19] = target: T1, Calpain1/2 (Homo sapiens); assay: Inhibition of calpain (unknown origin) at 100 nM relative to control; type: protein assay
[20] = target: Cathepsin B (Homo sapiens) (UniProt P07858); assay: Inhibition of cathepsin B (unknown origin) at 100 nM relative to control
[21] = target: T2, Cathepsin K (Homo sapiens); assay: Inhibition of cathepsin K (unknown origin) at 100 nM relative to control
[22] = target: Cathepsin S (Homo sapiens) (UniProt P25774); assay: Inhibition of cathepsin S (unknown origin) at 100 nM relative to control
[23] = target: Prothrombin (Homo sapiens) (UniProt P00734); assay: Inhibition of thrombin (unknown origin) at 100 nM relative to control
[24] = target: T4, Trypsin (Homo sapiens); assay: Inhibition of trypsin (unknown origin) at 100 nM relative to control; type: protein assay
[25] = target: Tryptase beta-2 (Homo sapiens) (UniProt P20231); assay: Inhibition of tryptase b2 (unknown origin) at 100 nM relative to control
[26] = target: Procathepsin L (Homo sapiens) (UniProt P07711); assay: Inhibition of cathepsin L (unknown origin) at 1 uM relative to control
[27] = target: Procathepsin L (Homo sapiens) (UniProt P07711); assay: Inhibition of cathepsin L (unknown origin) at 100 nM relative to control
[28] = target: T3, Cathepsin L2 (Homo sapiens); assay: Inhibition of cathepsin V (unknown origin) at 100 nM relative to control
[29] = target: T5, Mucosa-associated lymphoid tissue lymphoma translocation protein 1 (Homo sapiens) (UniProt Q9UDY8); assay: Inhibition of MALT1 in human OCI-LY3 cells assessed as reduction in Relb cleavage at 20 uM by Western blot analysis; type: cell-based
T5 sequence (whole entry): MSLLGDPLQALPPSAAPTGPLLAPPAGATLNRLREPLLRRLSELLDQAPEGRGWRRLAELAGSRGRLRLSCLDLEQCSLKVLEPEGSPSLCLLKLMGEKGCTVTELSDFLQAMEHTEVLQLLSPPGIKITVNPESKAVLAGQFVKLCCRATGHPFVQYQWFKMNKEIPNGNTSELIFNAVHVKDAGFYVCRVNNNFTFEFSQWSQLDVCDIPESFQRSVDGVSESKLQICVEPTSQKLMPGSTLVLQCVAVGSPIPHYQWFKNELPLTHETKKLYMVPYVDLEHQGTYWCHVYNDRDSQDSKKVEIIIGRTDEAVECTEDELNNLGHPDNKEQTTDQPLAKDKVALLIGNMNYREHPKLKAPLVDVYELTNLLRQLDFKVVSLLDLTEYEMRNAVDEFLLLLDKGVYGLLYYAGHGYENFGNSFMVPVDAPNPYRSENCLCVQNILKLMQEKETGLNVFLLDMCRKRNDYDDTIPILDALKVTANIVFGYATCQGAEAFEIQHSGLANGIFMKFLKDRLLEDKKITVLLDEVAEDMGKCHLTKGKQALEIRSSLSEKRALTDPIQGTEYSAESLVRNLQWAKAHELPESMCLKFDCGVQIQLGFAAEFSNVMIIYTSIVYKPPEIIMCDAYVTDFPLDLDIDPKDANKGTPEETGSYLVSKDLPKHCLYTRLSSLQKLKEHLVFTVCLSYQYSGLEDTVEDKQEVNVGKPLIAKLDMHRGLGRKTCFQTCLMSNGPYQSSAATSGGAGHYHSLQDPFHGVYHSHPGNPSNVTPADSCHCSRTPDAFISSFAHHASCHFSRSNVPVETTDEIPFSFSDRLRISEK

[30] = target: T6, Mucosa-associated lymphoid tissue lymphoma translocation protein 1 (Homo sapiens, UniProt Q9UDY8); assay: Inhibition of recombinant LZ-fused MALT1 (340 to 789 residues) (unknown origin) using Ac-LRSR-AMC as substrate by fluorescence assay
T6 sequence (Q9UDY8 whole entry): T5 sequence (whole entry)

[31] = system: OCI-Ly1; assay: Antiproliferative activity against human OCI-LY1 cells up to 20 uM; type: functional, cell-based

Sequence of Cathepsin S (Homo sapiens) (P25774 115-331 limits assumed): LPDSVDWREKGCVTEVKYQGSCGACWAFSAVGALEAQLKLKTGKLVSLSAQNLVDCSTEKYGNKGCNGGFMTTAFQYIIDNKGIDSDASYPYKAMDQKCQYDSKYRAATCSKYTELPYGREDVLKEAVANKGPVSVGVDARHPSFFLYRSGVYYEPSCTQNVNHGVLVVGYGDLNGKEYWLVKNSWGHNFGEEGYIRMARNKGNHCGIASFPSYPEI
T1 sequence (P07384 whole entry, looked up): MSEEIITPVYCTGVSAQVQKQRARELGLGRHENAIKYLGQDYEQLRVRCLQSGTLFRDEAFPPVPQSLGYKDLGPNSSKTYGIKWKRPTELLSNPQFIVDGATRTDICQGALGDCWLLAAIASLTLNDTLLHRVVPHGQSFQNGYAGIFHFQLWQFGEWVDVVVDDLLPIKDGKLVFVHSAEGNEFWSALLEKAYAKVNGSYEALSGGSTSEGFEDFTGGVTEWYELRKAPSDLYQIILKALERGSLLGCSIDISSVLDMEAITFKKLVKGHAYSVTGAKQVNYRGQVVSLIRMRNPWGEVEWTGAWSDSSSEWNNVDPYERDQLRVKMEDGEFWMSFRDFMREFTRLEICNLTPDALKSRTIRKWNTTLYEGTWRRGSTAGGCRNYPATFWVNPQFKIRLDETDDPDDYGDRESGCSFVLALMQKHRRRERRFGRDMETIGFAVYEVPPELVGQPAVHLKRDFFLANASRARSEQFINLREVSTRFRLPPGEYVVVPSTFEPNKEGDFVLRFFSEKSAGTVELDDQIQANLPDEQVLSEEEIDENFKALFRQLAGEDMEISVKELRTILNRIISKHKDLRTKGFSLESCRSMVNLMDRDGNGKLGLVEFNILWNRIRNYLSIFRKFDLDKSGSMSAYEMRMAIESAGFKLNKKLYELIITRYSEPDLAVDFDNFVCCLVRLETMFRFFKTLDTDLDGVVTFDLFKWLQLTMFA
T1 sequence (P17655 whole entry, looked up): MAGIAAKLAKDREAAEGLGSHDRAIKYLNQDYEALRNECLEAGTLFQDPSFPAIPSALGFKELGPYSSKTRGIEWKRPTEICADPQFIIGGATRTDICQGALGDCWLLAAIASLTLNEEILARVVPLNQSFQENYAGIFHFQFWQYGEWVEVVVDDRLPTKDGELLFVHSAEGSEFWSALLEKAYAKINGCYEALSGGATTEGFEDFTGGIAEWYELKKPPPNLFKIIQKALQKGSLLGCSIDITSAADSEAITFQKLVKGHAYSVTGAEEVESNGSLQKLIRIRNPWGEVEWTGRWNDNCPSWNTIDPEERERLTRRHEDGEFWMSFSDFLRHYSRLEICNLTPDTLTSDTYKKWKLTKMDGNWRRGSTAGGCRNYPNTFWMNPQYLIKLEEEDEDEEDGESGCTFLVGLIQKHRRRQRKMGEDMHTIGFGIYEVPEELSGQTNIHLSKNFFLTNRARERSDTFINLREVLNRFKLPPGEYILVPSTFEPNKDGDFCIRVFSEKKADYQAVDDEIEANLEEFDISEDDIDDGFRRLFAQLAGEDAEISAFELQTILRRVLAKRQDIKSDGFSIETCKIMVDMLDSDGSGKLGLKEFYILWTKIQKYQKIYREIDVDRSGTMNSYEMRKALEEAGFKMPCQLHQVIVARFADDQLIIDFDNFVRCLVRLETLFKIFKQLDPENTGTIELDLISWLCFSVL
Sequence of Tryptase beta-2 (Homo sapiens) (P20231 whole entry): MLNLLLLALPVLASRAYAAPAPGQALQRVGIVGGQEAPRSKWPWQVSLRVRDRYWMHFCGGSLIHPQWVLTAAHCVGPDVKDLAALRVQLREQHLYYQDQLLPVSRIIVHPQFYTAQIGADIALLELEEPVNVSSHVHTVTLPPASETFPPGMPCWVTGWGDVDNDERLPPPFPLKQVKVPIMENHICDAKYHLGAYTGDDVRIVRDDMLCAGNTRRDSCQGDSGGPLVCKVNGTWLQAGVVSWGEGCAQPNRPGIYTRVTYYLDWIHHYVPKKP
Sequence of Procathepsin L (Homo sapiens) (P07711 114-333 limits assumed): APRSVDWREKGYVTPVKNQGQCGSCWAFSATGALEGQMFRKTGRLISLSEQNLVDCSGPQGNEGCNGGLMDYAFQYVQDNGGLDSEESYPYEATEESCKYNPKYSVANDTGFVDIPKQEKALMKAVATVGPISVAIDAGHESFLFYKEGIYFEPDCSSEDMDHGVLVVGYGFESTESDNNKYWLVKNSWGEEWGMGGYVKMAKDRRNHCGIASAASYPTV

Compound | GI50 [1] | inhibition [2] | inhibition [3] | inhibition [4] | inhibition [5] | inhibition [6] | inhibition [7] | inhibition [8] | inhibition [9] | inhibition [10] | inhibition [11] | inhibition [12] | inhibition [13] | inhibition [14] | inhibition [15] | inhibition [16] | inhibition [17] | inhibition [18] | inhibition [19] | inhibition [20] | also measured
CC(C)[C@H](NC(=O)c1ccc(Br)cc1)C(=O)N1CCCC[C@H]1C(=O)N[C@@H](CCCNC(=N)N)C(=O)CF | 460 nM | 112% | 98.2% | 98.9% | 36.2% | 99.7% | 86.3% | 75.8% | 93.7% | 31% | 76% | 79.7% | 98.1% | 85.7% | 32.1% | 19.4% | 91% | 3.4% | 25.9% | 10.7% | inhibition [21]: 68.7%; inhibition [22]: 82.2%; inhibition [23]: 4.6%; inhibition [24]: 65%; inhibition [25]: 1%
CC(C)[C@H](NC(=O)c1ccc(Br)cc1)C(=O)N[C@@H](CO)C(=O)N[C@@H](CCCNC(=N)N)C(=O)CF | 150 nM | 105% | 100% | 89.7% | 49.4% | 100% | 94.1% | 41.8% | 94.2% | 47.5% | 99.8% | 99.5% | 38.3% | 100% | 58.4% | 1.1% | 92.6% | 15.3% | 98.5% | 88.7% | inhibition [26]: 11.2%; inhibition [21]: 28.8%; inhibition [27]: 13%; inhibition [22]: 99%; inhibition [28]: 29.8%; inhibition [23]: 2.3%; inhibition [24]: 64%; inhibition [25]: 6.5%
CCC(=O)[C@H](CCCNC(=N)N)NC(=O)[C@@H]1CCCN1C(=O)[C@@H](NC(=O)[C@H](CC(C)C)NC(=O)OCc1ccccc1)C(C)C | > 20000 nM | – | – | – | – | – | – | – | – | – | – | – | – | – | – | – | – | – | – | – | inhibition [29]: inactive; Ki [30]: > 5000 nM; Activity [31]: inactive
